{
  "source": "patent US20210386738A1",
  "about": "“COMBINATION OF PRMT5 INHIBITORS AND BCL-2 INHIBITORS” (GLAXOSMITHKLINE INTELLECTUAL PROPERTY DEVELOPMENT LIMITED, priority 2018, published 2021)",
  "key": {"lymphoma cell line DB": {"test_system": "lymphoma cell line DB", "experiment": "Serial dilutions: fixed ABT-199 concentration with Compound A titration, six-day cell proliferation", "type": "cell-based", "description": "Serial dilutions were performed for the combination to ascertain the change in gIC50, gIC100 and dEC50 when the inhibitors are used together in a PRMT5 inhibitor cell proliferation. A first compound plate was prepared where PRMT5 inhibitor, Compound A, was prepared with a 20-point, two-fold dilution series of compound A from column 1 to 20. A second compound plate was prepared using the BCL-2 inhibitor ABT-199. ABT-199 was titrated in a 16-point 2-fold dilution series from row A to Q. A third plate was then created by added equal volume of 12 ul (ABT-199) from each well in the second plate into the corresponding well in the first plate. The third plate comprised rows from A to Q, each row comprising a fixed concentration of ABT-199. Columns 1-20 comprised varying concentrations of compound A from the 20-point dilution. Plates were incubated for six days at the conditions described above. Lymphoma cell line DB was treated with the solution in each of the wells. Cell growth was measured using CellTiter-Glo (Promega) and luminescence signal was detected with a BioTek Synergy Neo microplate reader. A plate of untreated cells was read at the time of compound/biologic addition to determine the T0 value representing the starting number of cells. Data were fit with a four-parameter equation to generate a concentration response curve for each row using Assay Client software. A comparison was made across each row in the third plate to determine, when keeping a fixed concentration of ABT-199, what concentration of compound A is needed to reach the gIC50, gIC100 or dEC50 respectively and the fold change compared to treating the same cell with compound A alone.\nTables 4a-c show the results of the above serial dilution experiments wherein ‘fold change’ is the difference between the amount of compound A needed to achieve gIC50, gIC100 or dEC50 respectively, compared to the amount of compound A needed to achieve gIC50, gIC100 or dEC50 respectively when compound A is given as a single agent."}, "[1]": {"test_system": "lymphoma cell line SU-DHL-4", "experiment": "Standard 6-day growth-death assay, SU-DHL-4", "type": "cell-based", "details": "single agent or fixed 1:1 combination", "description": "The majority cell lines were obtained from GSK BioCat group, American Type Culture Collection (ATCC), or the Deutsche Sammlung von Mikroorganismen and Zellbulturen (DSMZ). All cell lines were maintained in growth medium in T75 cm^2 flasks, incubated at 37° C. with 5% CO2 and split every 3 to 4 days. Growth media conditions and cell line information are detailed in Table 1. Cells were counted using the Vi-Cell Analyzer (Beckman Coulter ViCell) to obtain viable cell counts.\nOptimal cell seeding density was determined for all cell lines by monitoring proliferation over a range of seeding densities in 384-well format and identifying the seeding density at which cells grew logarithmically throughout six days. 50 uL of cells per well were plated in 384-well plates at the optimal seeding density in preferred supplemented culture media. Three plates were prepared per cell line and incubated overnight at 37° C. in 5% CO2.\nIn these studies, lymphoma cell lines were treated with PRMT5 inhibitor, compound A and BCL-2 targeted inhibitor, ABT-199 single agent or in combination using a fixed 1:1 ratio of each inhibitor over a 20-point titration. For compound A single and fixed 1:1 ratio combination with ABT-199 cell proliferation assay, cells were treated in duplicate with a 20-point, two-fold dilution series of Compound A, ABT-199 (≥14 μM top dose) single or combo treatment, and ≤0.15% DMSO final concentration. Plates were incubated for six days at the conditions described above. Cell growth was measured using CellTiter-Glo (Promega) and luminescence signal was detected with a BioTek Synergy Neo microplate reader. A plate of untreated cells was read at the time of compound/biologic addition to determine the T0 value representing the starting number of cells. Data were fit with a four-parameter equation to generate a concentration response curve using Assay Client software.\nResults were background corrected by subtraction of values from wells containing no cells, expressed as a percentage of the T0 value (value at time=0), and plotted against compound concentration. The T0 value was normalized to 100% and represents the number of cells present at the time of compound addition. The cellular response was determined for each compound using a 4- or 6-parameter curve fit of cell viability against concentration using Assay Client software. Growth IC50 (gIC50) values correspond to the concentration intersecting the mid-point of the growth window (between DMSO and T0 values). Growth IC100 (gIC100) values correspond to the concentration at which 100% growth inhibition is achieved, based on the growth window. The Ymin−T0 value, a measure of net population cell growth or death, is calculated by subtracting the T0 value (100%) from the Ymin value (%) that is determined from the fit of the concentration response curve. Death EC50 (dEC50) values correspond to the concentration at which 50% net cell death is observed.\nIndividual curves were quality checked for three criteria: outlier data points, cell growth (population doubling ≥1.5), and proper curve fitting. […] Individual curves were QC checked for outlier data points, cell growth (population doubling ≥1.5), and proper curve fitting. Obvious outlier data points were omitted only as needed to ensure proper curve fit.\nFor fixed ratio screening, combination activity was assessed by the fold change in gIC50 compared to the 2 single agent curves by dividing the compound ratio as necessary. Combinations showing >3-fold and >5-fold change from single agent are described as below: • Fold changes ≥5 are considered to represent strong synergy. • Fold changes between 3.0 and 4.9 are considered to represent weak synergy. • Fold changes <3 are considered to represent no synergy."}, "[2]": {"details": "fixed ABT-199 with compound A titration, vs compound A alone"}},
  "data": [
    {"smiles": "CC1(C)CCC(CN2CCN(c3ccc(C(=O)NS(=O)(=O)c4ccc(NCC5CCOCC5)c([N+](=O)[O-])c4)c(Oc4cnc5[nH]ccc5c4)c3)CC2)=C(c2ccc(Cl)cc2)C1", "note": "[ABT-199, venetoclax, reference compound]", "values": [
      {"measurement": "EC50", "setting": "lymphoma cell line DB; 144 h, single agent, six days, read-out: dEC50", "value": "> 7.33", "unit": "µM"},
      {"measurement": "IC50", "setting": "lymphoma cell line DB; 144 h, single agent, six days, read-out: gIC50", "value": 6.41, "unit": "µM"},
      {"measurement": "concentration of ABT-199 at which ≥3 fold change was achieved in dEC50", "setting": "lymphoma cell line DB; fixed ABT-199 with compound A titration", "value": 1833, "unit": "nM"},
      {"measurement": "concentration of ABT-199 at which ≥3 fold change was achieved in gIC50", "setting": "lymphoma cell line DB; [2]", "value": 115, "unit": "nM"},
      {"measurement": "concentration of ABT-199 at which ≥3 fold change was achieved in gIC100", "setting": "lymphoma cell line DB; [2]", "value": 458, "unit": "nM"},
      {"measurement": "gIC100", "setting": "lymphoma cell line DB; single agent, six days", "value": 7.331, "unit": "µM"},
      {"measurement": "EC50", "setting": "[1]; Homo sapiens, 144 h, average of n=2, read-out: dEC50", "value": 13, "unit": "µM"},
      {"measurement": "IC50", "setting": "[1]; Homo sapiens, 144 h, average of n=2, read-out: gIC50", "value": 0.673, "unit": "µM"},
      {"measurement": "Ymin-T0", "setting": "[1]; average of n=2", "value": 316, "unit": "%"},
      {"measurement": "gIC100", "setting": "[1]; average of n=2", "value": 12.485, "unit": "µM"}
    ]}
  ]
}
